Measurements taken from article PMC2850882, “Two additive mechanisms impair the differentiation of 'substrate-selective' p38 inhibitors from classical p38 inhibitors in vitro” (BMC Systems Biology, 2010).
Like-named read-outs stand apart in the source and are kept apart here. Each block holds one compound with its values, some of them ahead of it.

What was measured:
p38-alpha (Homo sapiens) [1] = target: p38-alpha (Homo sapiens) (UniProt Q16539); conditions: cited from earlier work
p38-alpha (Homo sapiens) [2] = target: p38-alpha (Homo sapiens) (UniProt Q16539); conditions: cited from earlier work; remark: listed apart in the source
[3] = target: T1, p38 (phosphorylation of MK2) (Homo sapiens, UniProt Q16539); assay: Single substrate assay, phospho-MK2 readout (MSD); type: biochemical; conditions: MK2 only; measured at 30 min; ± standard error
T1 construct: made in house
T1 sequence (Q16539 whole entry): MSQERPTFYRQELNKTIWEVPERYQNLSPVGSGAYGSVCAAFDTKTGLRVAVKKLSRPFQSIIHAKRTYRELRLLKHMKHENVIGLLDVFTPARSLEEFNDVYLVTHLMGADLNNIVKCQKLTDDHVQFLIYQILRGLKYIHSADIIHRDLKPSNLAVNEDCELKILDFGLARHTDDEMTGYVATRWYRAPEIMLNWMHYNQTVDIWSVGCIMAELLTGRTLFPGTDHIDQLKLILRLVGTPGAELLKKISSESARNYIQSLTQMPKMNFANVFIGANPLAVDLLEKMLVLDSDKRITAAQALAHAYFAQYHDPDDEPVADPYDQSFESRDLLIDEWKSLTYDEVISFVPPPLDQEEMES
Protocol: (§1) In each case, the degree of phosphorylation serves as a readout of the activity of p38 for its respective substrate.
(§2) The ability of active p38 to phosphorylate ATF2, MK2 or both was tested in a biochemical assay. Reagents were added in the following order: compound, substrate(s), ATP, p38 for a final reaction volume of 40 ul in low protein binding 96-well plates (Immulon-1B). […] Reactions were performed in buffer containing 20 mM HEPES pH 7.5, 10 mM MgCl2, 0.01% BSA, 0.0005% Tween-20, 2% DMSO and 0.1 mM DTT. Reactions were quenched with 40 ul of buffer containing 50 mM HEPES pH 7.5, 30 mM EDTA following different incubation times. Phosphorylated ATF2 and phosphorylated MK2 were assayed as described below. Compounds were diluted in DMSO (Sigma).
Phospho-MK2 was measured with the MSD platform using an in-house assay. […] Plates were blocked with 3% MSD Blocker A in MSD Tris Wash Buffer for at least 1 hr at RT. […] Plates were incubated for > 3 hr at RT, washed 4× with 150 ul MSD Tris Wash Buffer and read on the Meso-Scale Discovery Sector imager using 2× MSD Read Buffer T.

[4] = target: T2, p38 (phosphorylation of ATF2) (Homo sapiens, UniProt Q16539); assay: Single substrate assay, phospho-ATF2 readout (MSD); type: biochemical
T2 construct: made in house
T2 sequence (Q16539 whole entry): as above
Protocol: as §1, §2
Phospho-ATF2 was measured with the Meso-Scale Discovery (MSD) platform using an in-house assay. […] Plates were blocked with 3% MSD Blocker A in MSD Tris Wash Buffer for at least 1 hr at RT. […] Plates were incubated for > 3 hr at RT, washed 4× with 150 ul MSD Tris Wash Buffer and read on the Meso-Scale Discovery Sector imager using 2× MSD Read Buffer T.

[5] = target: T3, p38 (phosphorylation of MK2 in presence of ATF2) (Homo sapiens, UniProt Q16539); assay: ATF2/MK2 dual substrate assay, phospho-MK2 readout (MSD); type: biochemical; conditions: 0.5 nM p38, 100 nM ATF2, 10 nM MK2, 50 uM ATP; measured at 30 min; ± standard error
T3 construct: made in house
T3 sequence (Q16539 whole entry): as above
Protocol: (§3) To this end, we designed a dual-substrate assay in which p38 could simultaneously phosphorylate MK2 and/or ATF2. The assay conditions chosen were 0.5 nM p38, 100 nM ATF2, 10 nM MK2, 50 uM ATP. As with the single substrate assay, MK2 phosphorylation was assayed at 30 min and ATF2 phosphorylation was assayed at 120 min to ensure that each measurement was within the linear range of the assay. ATP levels were measured at the end of the assay, to confirm that it was not being depleted.
as §2
Phospho-MK2 was measured with the MSD platform using an in-house assay. […] Plates were incubated for > 3 hr at RT, washed 4× with 150 ul MSD Tris Wash Buffer and read on the Meso-Scale Discovery Sector imager using 2× MSD Read Buffer T.

[6] = target: T4, p38 (phosphorylation of ATF2 in presence of MK2) (Homo sapiens, UniProt Q16539); assay: ATF2/MK2 dual substrate assay, phospho-ATF2 readout (MSD); type: biochemical
T4 construct: made in house
T4 sequence (Q16539 whole entry): as above
Protocol: as §3, §2
Phospho-ATF2 was measured with the Meso-Scale Discovery (MSD) platform using an in-house assay. […] Plates were incubated for > 3 hr at RT, washed 4× with 150 ul MSD Tris Wash Buffer and read on the Meso-Scale Discovery Sector imager using 2× MSD Read Buffer T.

[7] = target: p38-alpha (MK2 phosphorylation); design: method as in PMID 15362850; conditions: read-out: KI, app, p38-alpha-dependent MK2 phosphorylation; cited from earlier work
[8] = target: p38-alpha (ATF-2 phosphorylation); design: method as in PMID 15362850; conditions: read-out: KI, app, phosphorylation of ATF-2; cited from earlier work
p38 = target: T5, p38 (Homo sapiens, UniProt Q16539); assay: ATP-p38 affinity (in-house measurement); type: binding; conditions: kinetic model parameter
T5 construct: made in house
T5 sequence (Q16539 whole entry): as above
Text: In order to aid in the interpretation of the dual substrate assay, we developed a simple kinetic model of p38-mediated phosphorylation of two substrates: ATF2 and MK2 (diagrammed in Figure 3a). Since p38 has a single kinase domain and ATP binding site, we assumed that p38 can only act on a single substrate at a time. For each substrate, a random-order bi-substrate (substrate + ATP) reaction mechanism was assumed. Active p38 can reversibly bind ATP, with affinity KD, ATP and ATP binding is independent of further complex formation. Active p38 (ATP bound and unbound) can reversibly bind to ATF2 or MK2 to form complexes p38-ATF2 or p38-MK2, respectively. Each complex undergoes an irreversible catalysis step to form products phospho-ATF2 (and ADP) or phospho-MK2 (and ADP). The model equations are a set of ordinary differential equations written in terms of mass-action kinetics. For the case where only one substrate is present, this model reduces to the single substrate assay.

p38-alpha (Homo sapiens), sequence (Q16539 2-360): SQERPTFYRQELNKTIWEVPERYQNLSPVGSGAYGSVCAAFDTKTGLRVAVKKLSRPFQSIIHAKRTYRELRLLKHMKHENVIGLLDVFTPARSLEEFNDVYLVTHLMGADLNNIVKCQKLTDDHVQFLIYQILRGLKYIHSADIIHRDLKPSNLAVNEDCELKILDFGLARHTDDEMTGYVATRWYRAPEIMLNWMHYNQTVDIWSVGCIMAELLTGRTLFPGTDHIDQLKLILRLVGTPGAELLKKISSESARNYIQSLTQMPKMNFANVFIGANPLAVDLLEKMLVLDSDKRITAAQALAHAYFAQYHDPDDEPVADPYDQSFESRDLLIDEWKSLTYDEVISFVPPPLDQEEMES
ATF2, sequence (P15336 whole entry): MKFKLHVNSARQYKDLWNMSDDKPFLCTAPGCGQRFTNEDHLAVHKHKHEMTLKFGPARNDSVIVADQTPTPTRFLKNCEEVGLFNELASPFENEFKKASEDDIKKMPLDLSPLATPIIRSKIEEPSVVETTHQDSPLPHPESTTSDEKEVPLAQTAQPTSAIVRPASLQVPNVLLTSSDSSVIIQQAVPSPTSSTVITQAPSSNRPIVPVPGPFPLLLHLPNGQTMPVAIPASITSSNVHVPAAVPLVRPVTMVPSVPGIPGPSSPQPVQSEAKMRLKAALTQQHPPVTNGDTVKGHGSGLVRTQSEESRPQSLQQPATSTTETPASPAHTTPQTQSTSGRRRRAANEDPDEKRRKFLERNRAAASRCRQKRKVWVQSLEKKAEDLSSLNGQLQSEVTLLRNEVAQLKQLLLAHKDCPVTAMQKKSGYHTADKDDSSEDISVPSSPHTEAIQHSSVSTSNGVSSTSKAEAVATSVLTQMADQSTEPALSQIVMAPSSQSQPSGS
MK2, sequence (P49137 whole entry): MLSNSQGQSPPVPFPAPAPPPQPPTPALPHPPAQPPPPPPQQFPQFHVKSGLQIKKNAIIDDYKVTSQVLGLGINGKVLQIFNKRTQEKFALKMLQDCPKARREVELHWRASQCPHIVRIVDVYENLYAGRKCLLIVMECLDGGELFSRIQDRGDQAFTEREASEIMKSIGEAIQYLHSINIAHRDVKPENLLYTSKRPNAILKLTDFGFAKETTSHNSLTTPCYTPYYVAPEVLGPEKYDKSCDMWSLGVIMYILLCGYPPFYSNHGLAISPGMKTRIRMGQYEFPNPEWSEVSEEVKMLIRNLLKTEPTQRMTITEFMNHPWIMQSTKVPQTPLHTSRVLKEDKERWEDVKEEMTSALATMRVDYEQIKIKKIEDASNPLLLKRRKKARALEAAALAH

Compound: MK2 (from UniProt P49137)
Kd (p38-alpha (Homo sapiens) [1]): 0.02 µM

Compound: ATF2 (from UniProt P15336)
Kd (p38-alpha (Homo sapiens) [2]): 38 µM

IC50 [3]: 23.4 ± 1.9 µM | IC50 ([4]; ATF2 only, measured at 120 min, ± standard error): > 400 µM | substrate selectivity = (ATF2 IC50)/(MK2 IC50), single substrate assay ([4]; ratio of single substrate assay IC50s): >17 | IC50 [5]: 41 ± 2.2 µM | IC50 ([6]; 0.5 nM p38, 100 nM ATF2, 10 nM MK2, 50 uM ATP, measured at 120 min, ± standard error): 27 ± 16 µM | substrate selectivity = (ATF2 IC50)/(MK2 IC50), dual substrate assay ([6]; ratio of dual substrate assay IC50s): 0.66
Compound: O=C(CCCc1ccc(-c2ccccc2F)cc1)Nc1ccc(O)cc1 [CMPD1]
Ki [7]: 0.33 µM | Ki [8]: > 20 µM

Compound: Nc1ncnc2c1ncn2[C@@H]1O[C@H](COP(=O)(O)OP(=O)(O)OP(=O)(O)O)[C@@H](O)[C@H]1O [ATP]
Kd (p38): 67 µM
